Read-outs that look alike come from different tables or passages of the source.
Columns and labels:
Plasmopara viticola = conditions: in vivo
Phytophthora infestans [1] = experiment: whole plant or invertebrate; format: in vivo; conditions: for Test B rating (100 = 100% disease control, 0 = no disease control relative to the controls): in vivo
Phytophthora infestans [2] = format: in vivo
[3] = tomato seedlings, sprayed to run-off 17 h after inoculation, application rate not given for unstarred values (40 ppm suspension mentioned)

Compound	Test A rating (100 = 100% disease control, 0 = no disease control relative to the controls) (Plasmopara viticola)	Test B rating (100 = 100% disease control, 0 = no disease control relative to the controls) (Phytophthora infestans [1])	Test C rating (100 = 100% disease control, 0 = no disease control relative to the controls) (Phytophthora infestans [2]; in vivo)	Test C rating (100 = 100% disease control, 0 = no disease control relative to the controls) (Phytophthora infestans [2]; [3])	pest or weed control at 200 ppm (Phytophthora infestans [1]; Phytophthora infestans, in Solanum lycopersicum, read-out: Test B rating (100 = 100% disease control, 0 = no disease control relative to the controls))
1-[4-[4-[(hydroxyimino)phenylmethyl]-2-thiazolyl]-1-piperidinyl-2-[5-methyl-3-(trifluoromethyl)-1H-pyrazol-1-yl]ethanone [Compound 15]	55%	100%			
1-[4-[4-[(hydroxyimino)phenylmethyl]-2-thiazolyl]-1-piperidinyl-2-[5-methyl-3-(trifluoromethyl)-1H-pyrazol-1-yl]ethanone [Compound 16]	0%	89%	0%		
Cc1cc(C(F)(F)F)nn1CC(=O)N1CCC(c2nc(C=NO)cs2)CC1 [Compound 8, 4-[4-[(hydroxyimino)methyl]-2-thiazolyl]-1-[[5-methyl-3-(trifluoromethyl)-1H-pyrazol-1-yl]acetyl]piperidine]	99%			97%	
CC(=NO)c1csc(C2CCN(C(=O)Cn3nc(C(F)(F)F)cc3C)CC2)n1 [Compound 10, 1-[4-[4-[1-(hydroxyimino)ethyl)-2-thiazolyl]-1-piperidinyl]-2-[5-methyl-3-(trifluoromethyl)-1H-pyrazol-1-yl]ethanone]	71%				
Cc1cc(C(F)(F)F)nn1CC(=O)N1CCC(c2nc(C(C=Cc3c(F)cccc3F)=NO)cs2)CC1 [Compound 11, 3-(2,6-difluorophenyl)-1-[2-[1-[2-[5-methyl-3-(trifluoromethyl)-1H-pyrazol-1-yl]acetyl]-4-piperidinyl]-4-thiazolyl]-2-propen-1-one 1-oxime]	100%			98%	
Cc1cc(C(F)(F)F)nn1CC(=O)N1CCC(c2nc(C(CC(O[Si](C)(C)C(C)(C)C)c3c(F)cccc3F)=NO)cs2)CC1 (stereo not drawn) [Compound 12, 3-(2,6-difluorophenyl)-3-[[(1,1-dimethylethyl)dimethylsilyl]oxy]-1-[2-[1-[2-[5-methyl-3-(trifluoromethyl)-1H-pyrazol-1-yl]acetyl]-4-piperidinyl]-4-thiazolyl]-1-propanone 1-oxime]	0%				40%
Cc1cc(C(F)(F)F)nn1CC(=O)N1CCC(c2nc(C(CC(O)c3c(F)cccc3F)=NO)cs2)CC1 (stereo not drawn) [Compound 13, 3-(2,6-difluorophenyl)-3-hydroxy-1-[2-[1-[2-[5-methyl-3-(trifluoromethyl)-1H-pyrazol-1-yl]acetyl]-4-piperidinyl]-4-thiazolyl]-1-propanone 1-oxime]	93%			97%	
CCOC(=O)/C(=N\O)c1csc(C2CCN(C(=O)Cn3nc(C(F)(F)F)cc3C)CC2)n1 [Compound 14]	0%			9%	
CON=C(C=Cc1c(F)cccc1F)c1csc(C2CCN(C(=O)Cn3nc(C(F)(F)F)cc3C)CC2)n1 [Compound 19, 3-(2,6-difluorophenyl)-1-[2-[1-[2-[5-methyl-3-(trifluoromethyl)-1H-pyrazol-1-yl]acetyl]-4-piperidinyl]-4-thiazolyl]-2-propen-1-one 1-(O-methyloxime)]	83%				
Cc1cc(C(F)(F)F)nn1CC(=O)N1CCC(c2nc(C(CCc3c(F)cccc3F)=NO)cs2)CC1 [Compound 21, 3-(2,6-difluorophenyl)-1-[2-[1-[2-[5-methyl-3-(trifluoromethyl)-1H-pyrazol-1-yl]acetyl]-4-piperidinyl]-4-thiazolyl]-1-propanone 1-oxime]	57%				
Cc1cc(C(F)(F)F)nn1CC(=O)N1CCC(c2nc(C=NOC(C)c3ccccc3)cs2)CC1 (stereo not drawn) [Compound 22, 2-[1-[2-[5-methyl-3-(trifluoromethyl)-1H-pyrazol-1-yl]acetyl]-4-piperidinyl]-4-thiazolecarboxaldehyde 4-[O-(1-phenylethyl)oxime]]	97%				
CC(=O)ON=C(C=Cc1c(F)cccc1F)c1csc(C2CCN(C(=O)Cn3nc(C(F)(F)F)cc3C)CC2)n1 [Compound 23, 3-(2,6-difluorophenyl)-1-[2-[1-[2-[5-methyl-3-(trifluoromethyl)-1H-pyrazol-1-yl]acetyl]-4-piperidinyl]-4-thiazolyl]-2-propen-1-one 1-(O-acetyloxime)]	99%			99%	

From US8722678B2 (priority 2010, dated 2014)
